Laboratory results published in BindingDB's records for doi:10.1016/j.bmcl.2009.06.075 (Pfizer, 2009).
pIC50: −log10 of the molar value.

test: Antagonist activity at human P2Y12 receptor assessed as inhibition of ADP-induced platelet-rich plasma aggregation by turbidimetric method

pIC50	SMILES
5.64	CCOC(=O)N1CCN(C(=O)[C@H](CCC(=O)O)NC(=O)c2cc(N3CCN(CCN(C)C)CC3)cc(-c3ccccc3)n2)CC1 [(S)-4-(4-(4-(2-(dimethylamino)ethyl)piperazin-1-yl)-6-phenylpicolinamido)-5-(4-(ethoxycarbonyl)piperazin-1-yl)-5-oxopentanoic acid]
5.62	CCCCCOC(=O)N1CCN(C(=O)[C@H](CCC(=O)O)NC(=O)c2cc(N3CCC(O)CC3)cc(-c3ccccc3)n2)CC1 [(S)-4-(4-(4-hydroxypiperidin-1-yl)-6-phenylpicolinamido)-5-oxo-5-(4-(pentyloxycarbonyl)piperazin-1-yl)pentanoic acid]
5.07	CCOC(=O)N1CCN(C(=O)[C@H](CCC(=O)O)NC(=O)c2cc(NCC3CCNCC3)cc(-c3ccccc3)n2)CC1 [(S)-5-(4-(ethoxycarbonyl)piperazin-1-yl)-5-oxo-4-(6-phenyl-4-(piperidin-4-ylmethylamino)picolinamido)pentanoic acid]
